Data: US20100168176A1, “NOVEL COMPOUNDS, PHARMACEUTICAL COMPOSITIONS CONTAINING SAME, AND METHODS OF USE FOR SAME” (FASGEN LLC, priority 2006, published 2010)
Converted amounts (≈) assume the structure as drawn.

Legend:
[1] = test system: MCF-7 human breast cancer cells; assay: Crystal violet cell growth assay, MCF-7; format: cell-based; details: MCF7, no cell code printed, MCF-7 per method, 72 hours, read-out: Cr. Violet (IC50)
Procedure: Crystal Violet Cell Growth Assay
The crystal violet assay measure cell growth but not cytotoxicity. This assay employs crystal violet staining of fixed cells in 96-well plates with subsequent solubilization and measurement of OD490 on a spectrophotometer. The OD490 corresponds to cell growth per unit time measured. Cells are treated with the compounds of interest or vehicle controls and IC50 for each compound is computed.
To measure the cytotoxicity of specific compounds against cancer cells, 5×10^4 MCF-7 human breast cancer cells, obtained from the American Type Culture Collection are plated per well in 24 well plates in DMEM medium with 10% fetal bovine serum, penicillin, and streptomycin. Following overnight culture at 37° C. and 5% CO2, the compounds to be tested, dissolved in DMSO, are added to the wells in 1 μl volume at the following concentrations: 50, 40, 30, 20, and 10 μg/ml in triplicate. […]
After 72 hours of incubation, cells are stained with 0.5 ml of Crystal Violet stain (0.5% in 25% methanol) in each well. […] Following transfer of 100 μl from each well to a 96-well plate, plates are read at OD490 on a Molecular Devices SpectraMax Plus Spectrophotometer Average OD490 values are computed using SOFTmax Pro Software (Molecular Devices) and IC50 values are determined by linear regression analysis using Prism version 3.02 (Graph Pad Software, San Diego).

[2] = test system: MCF-7 human breast cancer cells; assay: XTT cytotoxicity assay, MCF-7 (M); format: cell-based; details: Homo sapiens, MCF7; (M) or no code; MCF-7, 72 hours
Procedure: The XTT assay is a non-radioactive alternative for the [^51Cr] release cytotoxicity assay. XTT is a tetrazolium salt that is reduced to a formazan dye only by metabolically active, viable cells. The reduction of XTT is measured spectrophotometrically as OD490-OD650.
To measure the cytotoxicity of specific compounds against cancer cells, 9×10^3 MCF-7 human breast cancer cells, obtained from the American Type Culture Collection are plated per well in 96 well plates in DMEM medium with 10% fetal bovine serum, insulin, penicillin, and streptomycin. Following overnight culture at 37° C. and 5% CO2, the compounds to be tested, dissolved in DMSO, are added to the wells in 1 μl volume at the following concentrations: 80, 40, 20, 10, 5, 2.5, 1.25, and 0.625 μg/ml in triplicate. Additional concentrations are tested if required. 1 μl of DMSO is added to triplicate wells are the vehicle control. C75 is run at 40, 20, 10, […], 10, and 5 in triplicate as positive controls.
After 72 hours of incubation, cells are incubated for 4 hours with the XTT reagent as per manufacturer's instructions (Cell Proliferation Kit II (XTT) Roche). Plates are read at OD490 and OD650 on a Molecular Devices SpectraMax Plus Spectrophotometer. Three wells containing the XTT reagent without cells serve as the plate blank. XTT data are reported as OD490-OD650. Averages and standard error of the mean are computed using SOFTmax Pro software ([…]).
The IC50 for the compounds is defined as the concentration of drug leading to a 50% reduction in OD400-OD650 compared to controls. The OD400-OD650 are computed by the SOFTmax PRO software (Molecular Devices) for each compound concentration. IC50 is calculated by linear regression, plotting the FAS activity as percent of control versus drug concentrations. Linear regression, best-fit line, r^2, and 95% confidence intervals are determined using Prism Version 3.0 (Graph Pad Software).

OV = assay: XTT cytotoxicity assay, OV; format: cell-based
[3] = Weight loss screen in Balb/C mice; format: in vivo; details: 60 mg/kg intraperitoneally, day 1
Procedure: Weight Loss Screen for Novel FAS Inhibitors
Balb/C mice (Jackson Labs) are utilized for the initial weight loss screening. Animals are housed in temperature and 12 hour day/night cycle rooms and fed mouse chow and water ad lib. Three mice are utilized for each compound tested with vehicle controls in triplicate per experiment. For the experiments, mice are housed separately for each compound tested three mice to a cage. Compounds are diluted in DMSO at 10 mg/ml and mice are injected intraperitoneally with 60 mg/kg in approximately 100 μl of DMSO or with vehicle alone. Mice are observed and weighed daily; average weights and standard errors are computed with Excel (Microsoft). The experiment continues until treated animals reach their pretreatment weights.

Row | IC50 [1] [µg/mL] | Compound | IC50 [2] [µg/mL] | IC50 (OV) [µg/mL] | Weight Loss [3]
1 | 7.6 (≈ 17.9 µM) | CCCCCCCCC1(C)SC(=O)C=C1OCC(=O)NNc1ccccc1Cl (stereo not shown) [Compound 19, (5-Methyl-5-octyl-2-oxo-thiophen-4-yloxy)-acetic-acid-N′-(2-chlorophenyl)-hydrazide] | 6.1 ± 0.3 (≈ 14.4 µM) | 9.4 (≈ 22.1 µM) | 60 mg/kg: +3.0% (day 1)
2 | 18.2 (≈ 43.4 µM) | CCCCCCCCC1(C)SC(=O)C=C1OCC(=O)NNC(=O)c1ccncc1 (stereo not shown) [Compound 20] | 22.5 ± 2 (≈ 53.6 µM) | 33 ± 9.1 (≈ 78.7 µM) | –
